Assay results from patent US10335418B2, “Methods and compositions for treating metabolic syndrome” (Topokine Therapeutics, Inc., priority 2011, dated 2019).

Experiments:
[1] = Weight gain and condition, 4-week repeat-dose trial in (db-/db-) mice; type: in vivo
Description: A randomized, controlled, repeat-dose, 4-week trial was conducted on (db−/db−) mice, which are defective for the leptin receptor (Jackson Laboratories). These mice are genetically obese, dyslipidemic, and diabetic.
(§1) Methods: Mice were obtained from Jackson Laboratories and acclimated to the facility. At about 5 weeks of age, mice were prospectively randomized into groups and assigned to the treatment conditions shown in FIG. 1. Topical treatments were applied in a thin film to the right flank skin without occlusive dressings; subcutaneous injections were also administered to the right flank. […] They were housed in the same room, in 11 cages according to group, and fed ad libitum. Skin tissue was sampled and serum lipids tested on day 28. Tissue was fixed in formalin and stained with hematoxylin and eosin.

[2] = Serum lipids on day 28, (db-/db-) mice; type: in vivo
Description: as §1
FIG. 5 charts the triglyceride and total cholesterol results (mg/dl) for the topical treatment conditions as follows: Group 1=C, 3=D, 4=E, 5=F, 6=G, 10=H, 11=I.

subcutaneous fat [3] = test: Histologic sections of skin and subcutaneous fat, (db-/db-) mice; type: in vivo; details: for adipocytes and adipose layer, treated (right) flank / adipocytes and adipose layer, untreated (left) flank: day 28; for local versus systemic effect by histology: topical, concentration up to 0.3%
Description: as §1
All sections are shown at the same magnification (scale bar at top right=640 microns). The surface of the skin is oriented toward the top and left of each panel. Arrows in each section denote the panniculus carnosus, an anatomic layer that separates the first layer of subdermal fat from deeper, subpannicular fat (separation artifact is commonly seen deep to the panniculus and is not an in vivo process).

[4] = Projected systemic dose, mouse (FIG. 12); type: in vivo; details: topical, 100% serum bioavailability assumed
Description: (§2) FIG. 12 compares various topical doses of latanoprost in mouse, rat, and human, with respect to projected systemic dose. All calculations assume once-daily dosing and 100% serum bioavailability. The derivation of each dose is set forth based on the animal body weight, drug concentration, and drug volume. Finally, doses are scaled allometrically for body surface area (mg/m^2/d), as is appropriate for most low-molecular-weight molecules.

[5] = obese adults, 120 mg three times daily, after two years; cited from earlier work
[6] = Weight gain, food consumption and condition, 4-week study of latanoprost transdermal cream in ZDF rats; type: in vivo; details: for mean weight gain for days 0 to 29: 0.3 ml daily, vs vehicle
Description: A controlled, repeat-dose, 4-week, dose-ranging study of latanoprost transdermal cream was conducted in Zucker Diabetic Fatty (ZDF) rats (ZDF-Lepr^fa/Crl), which are defective for the leptin receptor, obese, hyperlipidemic, and diabetic.
(§3) Methods: Male ZDF rats, approximately 8 weeks old, were obtained from Jackson Laboratories and acclimated to the facility. There were 3 animals per treatment arm. Test articles were applied in a thin film to the right flank without occlusive dressings, at 0.3 ml daily for 28 days. Rats were fed ad libitum and housed in the same room in 4 cages according to group. […] Food consumption was measured by residual weight of chow. Animals were fasted overnight prior to day 29, and Oral Glucose Tolerance Tests were conducted on day 29 (1 g glucose per kg body weight). Skin tissue and serum chemistries were collected at day 29.

subcutaneous fat [7] = test: Histologic sections of skin and subcutaneous fat, ZDF rats; type: in vivo
Description: as §3
All sections are shown at the same magnification (scale bar at top right=500 microns). The surface of the skin is oriented toward the top of each panel.

[8] = Serum lipid levels on day 29, ZDF rats; type: in vivo
Description: as §3

[9] = Oral Glucose Tolerance Test on day 29, ZDF rats; type: in vivo; details: for oral glucose tolerance: day 29; for serum glucose AUC15-120 lower compared to vehicle-treated animals: 15 to 120 minutes post-glucose load
Description: as §3

[10] = Minimum effective dose and projected systemic dose, rat (FIG. 12); type: in vivo
Description: These effects were dose-dependent, and the minimum effective dose for these effects was deemed to be the 0.05% concentration.
as §2

[11] = Human ophthalmic dose and projected human transdermal dose (FIG. 12); details: by comparison to minimum effective dose in the rat
Description: as §2

[12] = Clinical application: person with metabolic syndrome, latanoprost transdermal 0.7% gel (Example 7); type: in vivo, human; details: 2 ml once daily, 1 to 6 months
Description: The following description exemplifies a clinical application of the invention to treat obesity, dyslipidemia, and type 2 diabetes mellitus in a person with metabolic syndrome.
A person is suffers from obesity, dyslipidemia, and type 2 diabetes. […] Their waist circumference is 42 inches. Their noninvasive blood pressure is 184/98. Their fasting serum glucose is […] and their glycated hemoglobin (hemoglobin A1C) is 8.1. Fasting serum lipids are as follows: triglycerides, 220 mg/dL; total cholesterol, 310 mg/dL, LDL 240 mg/dL, HDL, 35 mg/dL. Their physical exam is notable for prominent central (abdominal) obesity. In addition to medical therapy, the person's physician recommends a regimen of diet and exercise. After six months the person's weight, hemoglobin A1C, serum glucose, and serum lipids are unimproved. The physician prescribes systemic therapy with latanoprost, for example, a transdermal 0.7% gel in a metered-dose dispenser, with instructions to apply 2 ml metered dose once daily to the skin of the shoulders. After a period of time, for example from 1 to 6 months, the person's weight is reduced. Serum glucose, hemoglobin A1C, fasting serum LDL, and fasting serum triglycerides also diminish. Fasting serum HDL rises.

[13] = in vivo; cited from earlier work
[14] = Clinical application: person with dyslipidemia, oral extended-release tafluprost (Example 8); type: in vivo, human; details: oral extended-release 5 mg daily, 1 to 6 months
Description: The following description exemplifies a clinical application of the invention to reduce lipid concentrations in a patient with dyslipidemia and a history of coronary artery disease and myocardial infarction. A person with a history of obesity, hyperlipidemia, coronary artery disease, and myocardial infarction is found to have elevated serum triglycerides, total cholesterol, and low density lipoprotein, despite use of a statin. The person's physician prescribes an oral, extended-release formulation of tafluprost, for example, an extended-release tablet comprising 5 mg tafluprost, with instructions to take one capsule by mouth daily. After a period of time, for example from 1 to 6 months, the person's serum triglycerides, total cholesterol, and low density lipoprotein concentrations are reduced. Body weight is also seen to improve.

[15] = transdermal/topical to right flank skin, vs vehicle
[16] = topical 0.5% and 0.05%, day 29, vs vehicle, not statistically significant

O=C(O)CCC/C=C\C[C@@H]1[C@@H](/C=C/[C@@H](O)CCc2ccccc2)[C@H](O)C[C@@H]1O [BFA, 17-phenyl trinor prostaglandin F2α]
mean weight gain for days 0 to 28 ([1]; intraperitoneal): no significant effect on weight gain
mean weight gain for days 0 to 28 ([1]; subcutaneous, right flank): no significant effect on weight gain
mean weight gain for days 0 to 28 [1, 15]: reduced weight gain significantly and in a dose-dependent manner
serum lipids ([2]; intraperitoneal, day 28): no significant effect on serum lipids
serum lipids ([2]; subcutaneous, day 28): no significant effect on serum lipids
serum triglycerides ([2]; transdermal 0.1% or 0.3%, unfasted, day 28, vs control): significantly reduced

CC(C)OC(=O)CCC/C=C\C[C@@H]1[C@@H](/C=C/[C@@H](O)CCc2ccccc2)[C@H](O)C[C@@H]1O [BIE, 17-phenyl trinor prostaglandin F2α isopropyl ester]
mean weight gain for days 0 to 28 ([1]; subcutaneous, right flank): no significant effect on weight gain
potency of transdermal BIE relative to transdermal BFA, for each effect (weight gain, serum lipids) ([1]; transdermal): more potent
mean weight gain for days 0 to 28 [1, 15]: reduced weight gain significantly and in a dose-dependent manner
adipocytes deep to the panniculus (subcutaneous fat [3]; topical 0.3%): profound shrinkage of adipocytes deep to the panniculus
adipocytes and adipose layer, treated (right) flank (subcutaneous fat [3]; topical 0.3%): smaller adipocytes and thinner adipocyte layers
adipocytes and adipose layer, untreated (left) flank (subcutaneous fat [3]; topical 0.3%): smaller adipocytes and thinner adipocyte layers
local versus systemic effect by histology (subcutaneous fat [3]): indicative of a systemic effect
serum lipids ([2]; subcutaneous, day 28): no significant effect on serum lipids
serum total cholesterol ([2]; transdermal 0.1%, unfasted, day 28): significantly lower
systemic dose at which serum lipids and obesity responded [4]: 10 mg/m^2/d

CCCCCCCCCCC[C@@H](C[C@@H]1OC(=O)[C@H]1CCCCCC)OC(=O)[C@H](CC(C)C)NC=O [Orlistat]
loss of baseline body weight [5]: 8.8%
serum lipids and serum glucose [5]: not accompanied by any absolute improvement in serum lipids or serum glucose

CCNC(=O)CCC/C=C\C[C@@H]1[C@@H](/C=C/[C@@H](O)CCc2ccccc2)[C@H](O)C[C@@H]1O [bimatoprost, 17-phenyl trinor prostaglandin F2α ethyl amide]
adipocytes and adipose layer, treated (right) flank (subcutaneous fat [3]; topical 0.3%): smaller adipocytes and a thinner adipose layer
adipocytes and adipose layer, untreated (left) flank (subcutaneous fat [3]; topical 0.3%): resembled that of a vehicle-treated animal
local versus systemic effect by histology (subcutaneous fat [3]): local effect, but not a systemic effect
serum lipids ([2]; topical, day 28): no significant effect on serum lipids

CC(C)OC(=O)CCC/C=C\C[C@@H]1[C@@H](CC[C@@H](O)CCc2ccccc2)[C@H](O)C[C@@H]1O [latanoprost, 17-phenyl-13,14-dihydro trinor prostaglandin F2α isopropyl ester]
mean weight gain for days 0 to 29 ([6]; topical 0.005%): dose-dependent reductions in weight gain
daily observations and skin condition ([6]; topical 0.005-0.5%, 28 days): unremarkable
mean weight gain for days 0 to 29 ([6]; topical 0.05%): dose-dependent reductions in weight gain, which were statistically significant
mean weight gain for days 0 to 29 ([6]; topical 0.5%): dose-dependent reductions in weight gain, which were statistically significant
adipocytes and adipose layer, treated (right) flank (subcutaneous fat [7]; topical 0.005%): fewer and smaller adipocytes, and a thinner adipose layer
adipocytes and adipose layer, untreated (left) flank (subcutaneous fat [7]; topical 0.005%): resembled that of a vehicle-treated animal
local versus systemic effect by histology (subcutaneous fat [7]; topical 0.005%): local effect, but not a systemic effect
adipocytes, adipose layer and dermis, treated flank (subcutaneous fat [7]; topical 0.5%): fewer and smaller adipocytes, and thinner adipose layer and dermis
adipocytes, adipose layer and dermis, untreated flank (subcutaneous fat [7]; topical 0.5%): fewer and smaller adipocytes, and thinner adipose layer and dermis
local versus systemic effect by histology (subcutaneous fat [7]; topical 0.5%): indicative of a systemic effect
serum lipid benefits (triglycerides, LDL, HDL, HDL:LDL ratio) ([8]; topical 0.005%, day 29): absent
HDL:LDL ratio ([8]; topical 0.5% and 0.05%, day 29, vs vehicle, 0.5% one-sided p<0.05): dose-dependent increases
serum HDL [8, 16]: dose-dependent increases
serum LDL [8, 16]: dose-dependent reductions
serum triglycerides [8, 16]: dose-dependent reductions
oral glucose tolerance ([9]; topical 0.005%): no effect on oral glucose tolerance
serum glucose AUC15-120 lower compared to vehicle-treated animals ([9]; topical 0.05%): 12%
oral glucose tolerance ([9]; topical 0.5% and 0.05%): dose-dependent improvements in oral glucose tolerance
serum glucose AUC15-120 lower compared to vehicle-treated animals ([9]; topical 0.5%): 26%
minimum effective dose of topical latanoprost, as concentration ([10]; rat, equivalent of 0.05%): 0.5 mg/mL
systemic dose corresponding to minimum effective topical dose ([10]; rat, once-daily dosing, 100% serum bioavailability assumed, scaled for body surface area): 3.6 mg/m^2/d
minimum effective dose (concentration) for weight gain, serum lipids, glucose tolerance ([10]; transdermal, ZDF rat): 0.05%
predicted human transdermal dose sufficient for systemic benefit (serum lipids, diabetic condition, obesity) [11]: about 7 mg per day
fasting serum HDL [12]: rises
serum glucose, hemoglobin A1C, fasting serum LDL, fasting serum triglycerides [12]: diminish
weight [12]: reduced
serum elimination half-life [13]: about 17 minutes

CC(C)OC(=O)CCC/C=C\C[C@@H]1[C@@H](/C=C/C(F)(F)COc2ccccc2)[C@H](O)C[C@@H]1O [tafluprost]
body weight [14]: improve
serum triglycerides, total cholesterol, low density lipoprotein concentrations [14]: reduced
